The text below walks through data of patent publication US9115127B2 (AMGEN INC., priority 2010, dated 2015).

The target in one experiment is T1, wild-type human ALK (cytoplasmic domain, amino acids 1058-1620, N-terminal GST fusion) (Homo sapiens, UniProt Q9UM73).
T1 construct: The cytoplasmic domain (amino acids 1058-1620) of wild-type human ALK; GST (N); made in house; host or cells: SF9 insect cells
T1 sequence (Q9UM73 1058-1620): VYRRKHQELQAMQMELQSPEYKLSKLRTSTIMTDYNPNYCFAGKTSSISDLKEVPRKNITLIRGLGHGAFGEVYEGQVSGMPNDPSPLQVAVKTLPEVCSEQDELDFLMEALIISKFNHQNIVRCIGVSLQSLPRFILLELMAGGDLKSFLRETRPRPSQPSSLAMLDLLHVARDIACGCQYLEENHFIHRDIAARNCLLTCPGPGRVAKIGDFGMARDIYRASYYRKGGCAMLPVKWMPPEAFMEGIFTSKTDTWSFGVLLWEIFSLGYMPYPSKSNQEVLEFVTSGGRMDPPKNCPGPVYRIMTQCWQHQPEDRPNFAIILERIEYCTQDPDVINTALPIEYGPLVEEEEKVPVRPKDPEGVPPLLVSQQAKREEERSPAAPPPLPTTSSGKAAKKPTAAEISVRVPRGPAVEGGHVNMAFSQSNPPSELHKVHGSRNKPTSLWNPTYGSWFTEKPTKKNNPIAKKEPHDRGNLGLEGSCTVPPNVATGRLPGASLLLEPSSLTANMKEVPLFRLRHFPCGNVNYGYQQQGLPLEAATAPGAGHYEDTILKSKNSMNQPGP
Nature of the experiment: ALK Inhibition in Enzyme Assay (Lance TR-FRET kinase assay). The class given is biochemical.
Settings: not given
Summed up:
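Purified enzyme phosphorylated a biotinylated peptide substrate for 90 minutes at room temperature. Reactions were stopped with 20 mM EDTA in 50 mM Tris (pH 7.5), 100 mM NaCl, 0.05% BSA, 0.1% Tween-20. Phosphopeptide was detected by TR-FRET with SA-APC and Eu-W1024 anti-phosphotyrosine antibody PT66, excitation 320 nm.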
(In general: Time-resolved FRET reads energy transfer from a long-lived donor to a nearby acceptor.)
`CNC(=O)[C@H]1CC[C@H](n2/c(=N/C(=O)c3ccc(F)cc3)[nH]c3cnc(OCCN4CCCCC4)cc32)CC1` [Example 246, (E)-4-Fluoro-N-(1-(trans-4-(methylcarbamoyl)cyclohexyl)-6-(2-(piperidin-1-yl)ethoxy)-1H-imidazo[4,5-c]pyridin-2(3H)-ylidene)benzamide]: the IC50 lay within 100 to 1000 nM.

`NC(=O)[C@H]1CC[C@H](n2/c(=N/C(=O)c3cc(F)cc(F)c3)[nH]c3cnc(OCCN4CCCCC4)cc32)CC1` [Example 247, (E)-N-(1-(trans-4-Carbamoylcyclohexyl)-6-(2-(piperidin-1-yl)ethoxy)-1H-imidazo[4,5-c]pyridin-2(3H)-ylidene)-3,5-difluorobenzamide] came in with a half-inhibitory concentration (IC50) of 1000 to 5000 nM.

In turn, `NC(=O)[C@H]1CC[C@H](n2/c(=N/C(=O)c3ccc(F)cc3)[nH]c3cnc(OCCN4CCCCC4)cc32)CC1` [Example 248, (E)-N-(1-(trans-4-Carbamoylcyclohexyl)-6-(2-(piperidin-1-yl)ethoxy)-1H-imidazo[4,5-c]pyridin-2(3H)-ylidene)-4-fluorobenzamide] displayed a 50% inhibitory concentration (IC50) of 1000 to 5000 nM.

For `CNC(=O)[C@H]1CC[C@H](n2/c(=N/C(=O)c3cc(F)cc(F)c3)[nH]c3cnc(OCCN4CCCCC4)cc32)CC1` [Example 249, (E)-3,5-Difluoro-N-(1-(trans-4-(methylcarbamoyl)cyclohexyl)-6-(2-(piperidin-1-yl)ethoxy)-1H-imidazo[4,5-c]pyridin-2(3H)-ylidene)benzamide], the half-inhibitory concentration (IC50) was 1000 to 5000 nM.

Regarding `N#C[C@]1(c2cccc(Br)c2)C[C@@H](n2/c(=N/C(=O)c3ccc(F)cc3)[nH]c3cnc(OCCN4CCCCC4)cc32)C1` [Example 250, (E)-N-(1-(trans-3-(3-Bromophenyl)-3-cyanocyclobutyl)-6-(2-(piperidin-1-yl)ethoxy)-1H-imidazo[4,5-c]pyridin-2(3H)-ylidene)-4-fluorobenzamide], the IC50 was 100 to 1000 nM.

Molecule `NC(=O)[C@]1(c2cccc(Br)c2)C[C@@H](n2/c(=N/C(=O)c3ccc(F)cc3)[nH]c3cnc(OCCN4CCCCC4)cc32)C1` [Example 251, (E)-N-(1-(trans-3-(3-Bromophenyl)-3-carbamoylcyclobutyl)-6-(2-(piperidin-1-yl)ethoxy)-1H-imidazo[4,5-c]pyridin-2(3H)-ylidene)-4-fluorobenzamide] displayed a 50% inhibitory concentration (IC50) of 50 to 100 nM.

Regarding `NC(=O)[C@]1(c2cccc(Br)c2)C[C@H](n2/c(=N/C(=O)c3ccc(F)cc3)[nH]c3cnc(OCCN4CCCCC4)cc32)C1` [Example 252, (E)-N-(1-(cis-3-(3-Bromophenyl)-3-carbamoylcyclobutyl)-6-(2-(piperidin-1-yl)ethoxy)-1H-imidazo[4,5-c]pyridin-2(3H)-ylidene)-4-fluorobenzamide], the IC50 lay in the range of 1000 to 5000 nM.

Staying with this experiment, now noted: 2 nM enzyme, ATP 40 μM (Km apparent), 90 minutes at room temperature; mean of three replicates.
`C=CCNS(=O)(=O)c1cccc(C(=O)/N=c2\[nH]c3cnc(OCCN4CCCCC4)cc3n2C2CCC(C(=O)NC)CC2)c1` [Example 245, (E)-3-(N-Allylsulfamoyl)-N-(1-((1R,4R)-4-(methylcarbamoyl)cyclohexyl)-6-(2-(piperidin-1-yl)ethoxy)-1H-imidazo[4,5-c]pyridin-2(3H)-ylidene)benzamide]: the IC50 lay in the range of 50 to 100 nM.

Broadly, the IC50 is the midpoint of a concentration-inhibition curve.
